Assay results taken from US5521196A, “5-HT1F agonists for the treatment of migraine” (Eli Lilly and Company, priority 1994, dated 1996).
Structures can show the parent of a compound that is named as a salt.

System: protein extravasation in the dura from stimulation of the trigeminal ganglion
Experiment: not given
Conditions: iv

First: CNS(=O)(=O)Cc1ccc2[nH]cc(CCN(C)C)c2c1.O=C(O)CCC(=O)O [Compound I, 3-[2-(dimethylamino)ethyl]-N-methyl-1H-indole-5-methanesulfonamide butane-1,4-dioate (1:1)]
Second: CCN(CC)C1CCc2cccc(Cl)c2C1.Cl (centres unmarked) [Compound IV, 8-chloro-2-diethylamino-1,2,3,4-tetrahydronaphthalene hydrochloride]
The “Inhibition of Protein Extravasation, i.v. ID50” value of the first is lower: 2.6e-08 nmol/kg for the first, 1.2e-07 nmol/kg for the second.

System: neurogenic inflammation
Experiment: not given
Conditions: in vivo; cited from earlier work

In the case of `CNS(=O)(=O)Cc1ccc2[nH]cc(CCN(C)C)c2c1.O=C(O)CCC(=O)O` [Compound I, 3-[2-(dimethylamino)ethyl]-N-methyl-1H-indole-5-methanesulfonamide butane-1,4-dioate (1:1)], the “block of neurogenic inflammation” value is listed as “blocked”.

System: not given
Experiment: not given
Conditions: in vivo; cited from earlier work

In the case of `CNS(=O)(=O)Cc1ccc2[nH]cc(CCN(C)C)c2c1.O=C(O)CCC(=O)O` [Compound I, 3-[2-(dimethylamino)ethyl]-N-methyl-1H-indole-5-methanesulfonamide butane-1,4-dioate (1:1)], the “effectiveness in the treatment of migraine” value is listed as “effective in the treatment of migraine”.

Molecular target: T1, 5-HT1F receptor (Homo sapiens, UniProt P30939)
T1 sequence (P30939 1-366): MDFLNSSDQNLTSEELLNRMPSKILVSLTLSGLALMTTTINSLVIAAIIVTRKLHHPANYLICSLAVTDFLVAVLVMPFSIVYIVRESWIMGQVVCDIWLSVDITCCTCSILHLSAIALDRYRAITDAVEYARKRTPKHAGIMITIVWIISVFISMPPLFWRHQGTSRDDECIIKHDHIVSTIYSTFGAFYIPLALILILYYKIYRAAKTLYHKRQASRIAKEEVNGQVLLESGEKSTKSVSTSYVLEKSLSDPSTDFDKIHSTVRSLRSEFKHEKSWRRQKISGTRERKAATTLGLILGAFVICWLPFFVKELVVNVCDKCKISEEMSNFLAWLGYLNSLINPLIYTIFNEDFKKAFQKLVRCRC
Experiment: biochemical
Conditions: Table I; displacement of 4.5-5.5 nM [3H]5-HT, 37° C., 30 minutes; read-out: 5-HT1F BINDING Ki

First: Cc1ccccc1-n1cc(CCN2CCC(c3c[nH]c4ccc(Cl)cc34)CC2)cn1 [Example 41, 5-chloro-3-<1-<2-<1-(2-methylphenyl)-1H-pyrazol-4-yl>ethyl>-4-piperidinyl>- 1H-indole oxalate]
Second: Cc1cccc(-n2cc(CCN3CCC(c4c[nH]c5ccc(Cl)cc45)CC3)cn2)c1 [Example 42, 5-chloro-3-<1-<2-<1-(3-methylphenyl)-1H-pyrazol-4-yl>ethyl>-4-piperidinyl>- 1H-indole oxalate]
The Ki of the first is 3.5-fold higher: 153 nM for the first, 43.2 nM for the second. The second binds more tightly here.

First: Cc1ccc(-n2cc(CCN3CCC(c4c[nH]c5ccc(Cl)cc45)CC3)cn2)cc1 [Example 43, 5-chloro-3-<1-<2-<1-(4-methylphenyl)-1H-pyrazol-4-yl>ethyl>-4-piperidinyl>- 1H-indole]
Second: Oc1ccc2[nH]cc(C3CCN(CCc4cnn(-c5ccccc5)c4)CC3)c2c1 [Example 52, 5-hydroxy-3-<1-<2-<1-phenyl-1H-pyrazol-4-yl>ethyl>-4-piperidinyl>-1H-indole]
The Ki of the first is 16-fold higher: 37.7 nM for the first, 2.4 nM for the second.

Compared with `Fc1ccc2[nH]cc(C3CCN(CCc4cc[nH]c4)CC3)c2c1` [Example 44, 5-fluoro-3-<1-<2-<1H-pyrrol-3-yl>ethyl>-4-piperidinyl>-1H-indole oxalate], `Fc1ccc2[nH]cc(C3CCN(CCc4cn[nH]c4)CC3)c2c1` [Example 48, 5-fluoro-3-<1-<2-<1H-pyrazol-4-yl>ethyl>-4-piperidinyl>-1H-indoledihydrochloride] is 6.7-fold lower in Ki: 53.9 nM for the first, 8.1 nM for the second.

Compared with `Fc1ccc2[nH]cc(C3CCN(CCc4ccccn4)CC3)c2c1` [Example 45, 5-fluoro-3-<1-<2-<pyridin-2-yl>ethyl>-4-piperidinyl>-1H-indoledihydrochloride], `Fc1ccc2[nH]cc(C3CCN(CCc4cccnc4)CC3)c2c1` [Example 47, 5-fluoro-3-<1-<2-<pyridin-3-yl>ethyl>-4-piperidinyl>-1H-indolehydrochloride monohydrate] is 4.3-fold higher in Ki: 27 nM for the first, 115 nM for the second. The first binds more tightly here.

First: Fc1ccc2[nH]cc(C3CCN(CCc4ccncc4)CC3)c2c1 [Example 46, 5-fluoro-3-<1-<2-<pyridin-4-yl>ethyl>-4-piperidinyl>-1H-indoledihydrochloride]
Second: Cn1cc(CCN2CCC(c3c[nH]c4ccc(O)cc34)CC2)cn1 [Example 49, 5-hydroxy-3-<1-<2-<1-methyl-1H-pyrazol-4-yl>ethyl>-4-piperidinyl>-1H-indoleoxalate]
The Ki of the first is 3.8-fold higher: 5.3 nM for the first, 1.4 nM for the second.

Compared with `CC(C)n1cc(CCN2CCC(c3c[nH]c4ccc(O)cc34)CC2)cn1` [Example 50, 5-hydroxy-3-<1-<2-<1-(1-methylethyl)-1H-pyrazol-4-yl>ethyl>-4-piperidinyl>-1H-indole], `CCCn1cc(CCN2CCC(c3c[nH]c4ccc(O)cc34)CC2)cn1` [Example 53, 5-hydroxy-3-<1-<2-<1-propyl-1H-pyrazol-4-yl>ethyl>-4-piperidinyl>-1H-indole] is 2.1-fold lower in Ki: 2.3 nM for the first, 1.1 nM for the second.

Compared with `Oc1ccc2[nH]cc(C3CCN(CCc4cnn(C5CCCCC5)c4)CC3)c2c1` [Example 51, 5-hydroxy-3-<1-<2-<1-cyclohexyl-1H-pyrazol-4-yl>ethyl>-4-piperidinyl>-1H-indole oxalate], `Clc1ccc2[nH]cc(C3CCN(CCCc4cn[nH]c4)CC3)c2c1` [Example 54, 5-chloro-3-<1-<3-<1H-pyrazol-4-yl>propyl>-4-piperidinyl>-1H-indole oxalate] is 9.5-fold higher in Ki: 4.4 nM for the first, 42 nM for the second.

For `CC(C)n1cc(CCN2CC=C(c3c[nH]c4ccc(Cl)cc34)CC2)cn1` [Example 55, 5-chloro-3-<1,2,3,6-tetrahydro-1-<2-<1-(1-ethylmethyl)-1H-pyrazol-4-yl>ethyl>-4-pyridinyl>-1H-indole], the Ki was 7.4 nM.

System: cephalic vascular smooth muscle
Experiment: not given
Conditions: cited from earlier work

For `CNS(=O)(=O)Cc1ccc2[nH]cc(CCN(C)C)c2c1.O=C(O)CCC(=O)O` [Compound I, 3-[2-(dimethylamino)ethyl]-N-methyl-1H-indole-5-methanesulfonamide butane-1,4-dioate (1:1)], the “contraction of cephalic vascular smooth muscle” value is listed as “contract cephalic vascular smooth muscle”.
